This note sets out measurements from patent US20220160703A1, “TUMOR-SELECTIVE COMBINATION THERAPY” (The Board of Regents of The University of Texas System, priority 2019, published 2022).

Series [1] can be described thus: Methemoglobinemia and weight loss. It counts as in vivo. As to conditions: MC38 tumor bearing mice, 10 Gy + β-lap.
Another series concerns tumor specific T cells. Briefly: IFNγ ELISPOT / CBA tumor-specific T cell response. It counts as in vivo, mice. As to the method: FIGS. 3A-E. Batf3-dependent dendritic cell-mediated T cell cross-priming is required for the antitumor effect of β-lap. […] IFNγ producing cells were determined by ELISPOT assay. […] (FIG. 3D) MC38 cells were subcutaneously transplanted into C57BL/6 WT (n=5/group) and Batf3^-/- mice (n=5/group for Batf3^-/- vehicle; n=6/group for Batf3^-/- β-lap), respectively. Tumor bearing mice were treated with β-lap (0.3 mg, i.t.) every other day for four times. Tumor growth was monitored twice a week. (FIG. 3E) MC38-OVA bearing mice (n=3/group) were treated with β-lap (0.3 mg, i.t.) for one time, and 4 days later, CD11c^+ dendritic cells were purified from the tumor drain lymph node, and cocultured with CD8 T cells isolated from the spleen of OT-1 transgenic mice. The activity of cross-priming of T cells was determined by the level of cell-secreted IFNγ via Cytometric Bead Array (CBA) mouse IFNγ assay. Data are shown as mean±SEM from three independent experiments. **P<0.01, ***P<0.001, ****P<0.0001 determined by unpaired student t-test (FIGS. 3A, 3B and 3E) or two-way ANOVA (FIGS. 3C and 3D). FIGS. 4A-F. Type I IFNs and TLR4/MyD88/signaling is required for the antitumor effect of β-lap and tumor specific CTLs. (FIG. 4A) MC38 tumor bearing C57BL/6 mice (n=5/group) were treated with β-lap (0.3 mg, i.t.) every other day for four times. Anti-IFNAR blocking antibodies (150 μg, i.t.) were administrated every four days for three times during the treatment. (FIG. 4B) The MC38 tumor bearing WT (n=5/group) and […]=4/group) C57BL/6 mice were treated with β-lap (0.3 mg, i.t.) every other day for four times. (FIG. 4C) MC38 tumor bearing WT (n=5/group) and Myd88^-/- (n=3/group) C57BL/6 mice were treated with β-lap (0.3 mg, i.t.) every other day for four times. (FIG. 4D) MC38 tumor bearing WT (n=5/group) and Tlr4^-/- (n=4/group) C57BL/6 mice were treated with β-lap (0.3 mg, i.t.) every other day for four times). (FIG. 4E) MC38 tumor bearing C57BL/6 mice (n=5/group) were treated with β-lap (0.3 mg, i.t.) every other day for four times. Anti-HMGB1 neutralized antibodies (200 μg, i.p) were administrated every three days for three times during the treatment. Tumor growth was monitored twice a week. (FIG. 4F) MC38 tumor bearing WT (n=4/group) or Tlr4^-/- (n=4/group) or MyD88-/- (n=6/group) C57BL/6 mice were treated with β-lap (0.3 mg, i.t.) every other day for four times. Anti-HMGB1 neutralized antibodies (200 μg, i.p) were administrated every three days for three times during the treatment. 12 days after the initial treatment, lymphocytes from the TdLN were isolated and stimulated with MC38 tumor cells irradiated with 60 Gy. IFNγ producing cells were determined by ELISPOTs assay. Data are shown as mean±SEM from two to three independent experiments. *P<0.05, **P<0.01, ***P<0.001, ****P<0.0001 determined by two-way ANOVA. […] (FIG. 6A) Treatment schema for local β-lap treatment based combinative therapy in FIG. 6B and FIG. 6C. (FIGS. 6B-C) MC38 tumor cells were s.c. inoculated into the flank of C57BL/6 mice (n=5/group). […] Tumor growth was monitored twice a week, and numbers of tumor free mice after treatment were shown. […] Tumor growth was monitored twice a week, and numbers of tumor free mice after treatment were shown. […] 12 days after first treatment, tumor infiltrating CD45^+ cells and lymphocytes were analyzed by flow cytometry (FIG. 6G), and OT-1 antigen specific T cells in the spleen were determined by IFNγ ELISPOT assay (FIG. 6H). […]

On to `CC1(C)CCC2=C(O1)c1ccccc1C(=O)C2=O` [β-lap, β-lapachone], for which, in series [1], the “methemoglobinemia or weight loss” value was “no significant methemoglobinemia or weight loss”. Further, the “IFNγ-producing T cells” value with tumor specific T cells (MC38, splenocytes 10 days after first β-lap, irradiated tumor cells) is recorded as “dramatically increased”. Moreover, the “OT1 antigen specific T cells in tumor tissues and spleen” value in the series on tumor specific T cells (MC38-OVA, 12 days after initial treatment) is given as “neither β-lap or anti-PD-L1 monotherapy increased”. In addition, the “numbers of OTI specific T cells in spleen” value in the series on tumor specific T cells (MC38-OVA, OTI peptide stimulation) was “much higher”. In addition, the “IFNγ production by OTI T cells primed by TdLN DCs” value in the series on tumor specific T cells (MC38-OVA, β-lap 0.3 mg i.t. once, DCs 4 days later, CBA) is given as “more IFNγ production”. The “tumor-reactive T cells in TdLN” value in the series on tumor specific T cells (WT mice, MC38, 12 days after initial treatment) is on record as “increased the number of tumor-reactive T cells”.
